According to the kinase profiling compilation of Christmann-Franck et al. (2016):

Tests used:
Test in all cases: radiometric filter-binding kinase assay, Kinase HotSpot
Settings in all cases: compound 0.5 µM; ATP 10 µM
[1] = molecular target: ACVRL1 (human) (UniProt P37023)
[2] = molecular target: AURKB (human) (UniProt Q96GD4)
[3] = molecular target: BRSK1 (human) (UniProt Q8TDC3)
[4] = molecular target: CDK2 CCNA2 (human) (UniProt P24941+P20248)
[5] = molecular target: CDK9 CCNT1 (human) (UniProt P50750+O60563)
[6] = molecular target: CLK4 (human) (UniProt Q9HAZ1)
[7] = molecular target: CSNK1A1 (human) (UniProt P48729)
[8] = molecular target: CSNK1G1 (human) (UniProt Q9HCP0)
[9] = molecular target: CSNK2A1 (human) (UniProt P68400)
[10] = molecular target: EPHA2 (human) (UniProt P29317)
[11] = molecular target: EPHA7 (human) (UniProt Q15375)
[12] = molecular target: EPHB2 (human) (UniProt P29323)
[13] = molecular target: FYN (human) (UniProt P06241)
[14] = molecular target: GSG2 (human) (UniProt Q8TF76)
[15] = molecular target: GSK3B (human) (UniProt P49841)
[16] = molecular target: IKBKB (human) (UniProt O14920)
[17] = molecular target: LIMK1 (human) (UniProt P53667)
[18] = molecular target: LRRK2 (human) (UniProt Q5S007)
[19] = molecular target: MAP4K5 (human) (UniProt Q9Y4K4)
[20] = molecular target: MARK2 (human) (UniProt Q7KZI7)
[21] = molecular target: MATK (human) (UniProt P42679)
[22] = molecular target: MERTK (human) (UniProt Q12866)
[23] = molecular target: MET (human) (UniProt P08581)
[24] = molecular target: MST4 (human) (UniProt Q9P289)
[25] = molecular target: MUSK (human) (UniProt O15146)
[26] = molecular target: NEK4 (human) (UniProt P51957)
[27] = molecular target: NTRK1 (human) (UniProt P04629)
[28] = molecular target: PAK1 (human) (UniProt Q13153)
[29] = molecular target: PAK4 (human) (UniProt O96013)
[30] = molecular target: PAK6 (human) (UniProt Q9NQU5)
[31] = molecular target: PLK1 (human) (UniProt P53350)
[32] = molecular target: PNCK (human) (UniProt Q6P2M8)
[33] = molecular target: PRKCI (human) (UniProt P41743)
[34] = molecular target: PRKX (human) (UniProt P51817)
[35] = molecular target: RPS6KB2 (human) (UniProt Q9UBS0)
[36] = molecular target: STK39 (human) (UniProt Q9UEW8)
[37] = molecular target: TAOK3 (human) (UniProt Q9H2K8)
[38] = molecular target: TBK1 (human) (UniProt Q9UHD2)
[39] = molecular target: TNK2 (human) (UniProt Q07912)
[40] = molecular target: WNK2 (human) (UniProt Q9Y3S1)
[41] = molecular target: AKT1 (human) (UniProt P31749)
[42] = molecular target: CDC42BPB (human) (UniProt Q9Y5S2)

Chain of LIMK1 (human) (P53667 whole entry, looked up): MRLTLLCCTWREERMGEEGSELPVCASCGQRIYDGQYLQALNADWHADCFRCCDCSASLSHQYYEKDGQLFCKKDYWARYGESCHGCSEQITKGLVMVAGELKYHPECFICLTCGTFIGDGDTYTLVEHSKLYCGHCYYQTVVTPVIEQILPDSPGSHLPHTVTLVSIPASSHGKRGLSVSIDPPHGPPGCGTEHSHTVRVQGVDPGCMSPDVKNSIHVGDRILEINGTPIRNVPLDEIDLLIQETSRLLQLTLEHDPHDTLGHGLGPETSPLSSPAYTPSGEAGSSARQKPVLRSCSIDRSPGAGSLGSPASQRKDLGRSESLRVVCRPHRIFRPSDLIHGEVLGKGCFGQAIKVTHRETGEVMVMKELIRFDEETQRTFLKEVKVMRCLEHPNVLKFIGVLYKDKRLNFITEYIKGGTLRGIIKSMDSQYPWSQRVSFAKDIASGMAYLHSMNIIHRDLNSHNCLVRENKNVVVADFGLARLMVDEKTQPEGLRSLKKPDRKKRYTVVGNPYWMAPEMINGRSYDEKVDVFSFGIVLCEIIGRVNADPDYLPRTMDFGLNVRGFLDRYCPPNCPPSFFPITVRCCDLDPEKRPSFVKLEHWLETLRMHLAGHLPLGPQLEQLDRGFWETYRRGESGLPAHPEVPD
Chain of EPHA7 (human) (Q15375 whole entry, looked up): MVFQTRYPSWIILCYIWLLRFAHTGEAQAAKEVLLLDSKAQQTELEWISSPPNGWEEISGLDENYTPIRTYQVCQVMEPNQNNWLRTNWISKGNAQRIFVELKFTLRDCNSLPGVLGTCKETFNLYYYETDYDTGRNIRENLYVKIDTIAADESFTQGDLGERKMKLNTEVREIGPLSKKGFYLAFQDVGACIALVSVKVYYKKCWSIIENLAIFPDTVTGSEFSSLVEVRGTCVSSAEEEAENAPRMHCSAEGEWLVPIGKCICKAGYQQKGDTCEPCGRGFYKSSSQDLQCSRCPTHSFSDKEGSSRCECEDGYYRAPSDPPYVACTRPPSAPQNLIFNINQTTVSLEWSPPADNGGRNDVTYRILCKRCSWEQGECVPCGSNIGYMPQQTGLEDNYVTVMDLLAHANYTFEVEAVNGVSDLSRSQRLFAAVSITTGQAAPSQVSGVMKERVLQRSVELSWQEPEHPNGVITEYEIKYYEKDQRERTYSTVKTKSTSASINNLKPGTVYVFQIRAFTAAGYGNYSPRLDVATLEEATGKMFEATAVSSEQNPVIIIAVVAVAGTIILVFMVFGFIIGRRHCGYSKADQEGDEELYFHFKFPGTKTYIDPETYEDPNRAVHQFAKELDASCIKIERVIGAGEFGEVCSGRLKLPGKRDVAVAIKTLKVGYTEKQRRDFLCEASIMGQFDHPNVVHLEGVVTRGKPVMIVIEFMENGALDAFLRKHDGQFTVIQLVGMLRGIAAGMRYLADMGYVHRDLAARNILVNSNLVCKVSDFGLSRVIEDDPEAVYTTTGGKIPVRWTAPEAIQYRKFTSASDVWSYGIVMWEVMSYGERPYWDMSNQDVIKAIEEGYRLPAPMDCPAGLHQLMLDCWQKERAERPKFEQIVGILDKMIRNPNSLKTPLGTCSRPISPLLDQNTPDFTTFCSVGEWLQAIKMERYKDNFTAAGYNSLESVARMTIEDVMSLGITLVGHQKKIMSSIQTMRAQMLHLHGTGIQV
Chain of EPHA2 (human) (P29317 whole entry, looked up): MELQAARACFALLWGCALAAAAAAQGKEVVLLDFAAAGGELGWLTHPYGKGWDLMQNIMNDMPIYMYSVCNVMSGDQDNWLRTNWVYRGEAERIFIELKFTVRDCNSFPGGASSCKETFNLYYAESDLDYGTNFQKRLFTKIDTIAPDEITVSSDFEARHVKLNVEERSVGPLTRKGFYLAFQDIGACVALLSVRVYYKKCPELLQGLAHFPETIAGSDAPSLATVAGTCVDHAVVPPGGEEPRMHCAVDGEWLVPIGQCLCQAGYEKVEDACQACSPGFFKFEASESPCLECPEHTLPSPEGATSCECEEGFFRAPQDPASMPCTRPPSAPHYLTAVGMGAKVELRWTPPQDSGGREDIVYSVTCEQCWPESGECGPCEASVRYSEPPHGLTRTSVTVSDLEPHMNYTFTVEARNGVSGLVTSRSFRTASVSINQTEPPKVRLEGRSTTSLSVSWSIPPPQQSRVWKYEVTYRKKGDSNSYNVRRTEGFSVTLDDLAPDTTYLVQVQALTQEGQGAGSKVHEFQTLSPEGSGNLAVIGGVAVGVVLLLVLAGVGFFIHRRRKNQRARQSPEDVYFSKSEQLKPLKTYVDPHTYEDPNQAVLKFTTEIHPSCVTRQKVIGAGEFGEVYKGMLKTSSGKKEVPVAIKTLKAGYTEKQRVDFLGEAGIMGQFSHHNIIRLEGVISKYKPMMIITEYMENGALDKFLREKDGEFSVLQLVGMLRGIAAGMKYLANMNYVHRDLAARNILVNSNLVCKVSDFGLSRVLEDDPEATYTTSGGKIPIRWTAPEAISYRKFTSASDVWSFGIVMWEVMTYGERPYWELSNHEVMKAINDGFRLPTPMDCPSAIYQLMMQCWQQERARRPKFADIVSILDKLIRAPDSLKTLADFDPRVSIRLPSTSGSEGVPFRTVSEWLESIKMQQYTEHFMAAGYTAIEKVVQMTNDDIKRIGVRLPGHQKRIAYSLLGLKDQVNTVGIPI
Chain of PNCK (human) (Q6P2M8 whole entry, looked up): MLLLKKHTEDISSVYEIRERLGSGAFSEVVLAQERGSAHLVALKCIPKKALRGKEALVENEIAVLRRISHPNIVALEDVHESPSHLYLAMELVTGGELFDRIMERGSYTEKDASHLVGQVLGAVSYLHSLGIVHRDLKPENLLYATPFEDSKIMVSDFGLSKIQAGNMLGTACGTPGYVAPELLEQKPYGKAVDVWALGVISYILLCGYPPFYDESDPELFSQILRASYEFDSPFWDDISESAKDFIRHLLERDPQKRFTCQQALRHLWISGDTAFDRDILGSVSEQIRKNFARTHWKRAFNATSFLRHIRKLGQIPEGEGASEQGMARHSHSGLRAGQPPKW
Chain of MAP4K5 (human) (Q9Y4K4 whole entry, looked up): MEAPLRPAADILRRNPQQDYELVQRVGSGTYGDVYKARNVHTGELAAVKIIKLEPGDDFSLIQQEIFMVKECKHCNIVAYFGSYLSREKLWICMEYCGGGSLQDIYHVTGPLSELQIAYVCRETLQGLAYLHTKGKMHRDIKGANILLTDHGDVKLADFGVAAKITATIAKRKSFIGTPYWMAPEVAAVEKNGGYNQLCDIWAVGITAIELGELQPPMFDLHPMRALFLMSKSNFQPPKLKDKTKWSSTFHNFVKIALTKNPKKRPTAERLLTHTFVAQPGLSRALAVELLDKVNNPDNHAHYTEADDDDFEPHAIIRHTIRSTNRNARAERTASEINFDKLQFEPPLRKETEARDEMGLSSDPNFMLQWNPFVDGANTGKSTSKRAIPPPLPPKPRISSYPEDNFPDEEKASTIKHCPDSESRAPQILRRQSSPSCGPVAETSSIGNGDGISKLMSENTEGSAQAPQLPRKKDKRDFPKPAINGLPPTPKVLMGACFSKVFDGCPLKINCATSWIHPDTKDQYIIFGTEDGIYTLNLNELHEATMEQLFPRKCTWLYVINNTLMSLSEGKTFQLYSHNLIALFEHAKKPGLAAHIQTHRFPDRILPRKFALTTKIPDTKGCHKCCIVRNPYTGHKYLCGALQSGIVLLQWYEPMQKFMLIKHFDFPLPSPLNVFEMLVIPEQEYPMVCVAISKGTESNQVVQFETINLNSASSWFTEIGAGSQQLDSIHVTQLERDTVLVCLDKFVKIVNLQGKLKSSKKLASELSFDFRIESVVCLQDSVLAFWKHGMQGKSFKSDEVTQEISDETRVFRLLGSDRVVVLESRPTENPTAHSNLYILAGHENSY
Chain of CDK9 CCNT1 (human) (O60563 whole entry, looked up): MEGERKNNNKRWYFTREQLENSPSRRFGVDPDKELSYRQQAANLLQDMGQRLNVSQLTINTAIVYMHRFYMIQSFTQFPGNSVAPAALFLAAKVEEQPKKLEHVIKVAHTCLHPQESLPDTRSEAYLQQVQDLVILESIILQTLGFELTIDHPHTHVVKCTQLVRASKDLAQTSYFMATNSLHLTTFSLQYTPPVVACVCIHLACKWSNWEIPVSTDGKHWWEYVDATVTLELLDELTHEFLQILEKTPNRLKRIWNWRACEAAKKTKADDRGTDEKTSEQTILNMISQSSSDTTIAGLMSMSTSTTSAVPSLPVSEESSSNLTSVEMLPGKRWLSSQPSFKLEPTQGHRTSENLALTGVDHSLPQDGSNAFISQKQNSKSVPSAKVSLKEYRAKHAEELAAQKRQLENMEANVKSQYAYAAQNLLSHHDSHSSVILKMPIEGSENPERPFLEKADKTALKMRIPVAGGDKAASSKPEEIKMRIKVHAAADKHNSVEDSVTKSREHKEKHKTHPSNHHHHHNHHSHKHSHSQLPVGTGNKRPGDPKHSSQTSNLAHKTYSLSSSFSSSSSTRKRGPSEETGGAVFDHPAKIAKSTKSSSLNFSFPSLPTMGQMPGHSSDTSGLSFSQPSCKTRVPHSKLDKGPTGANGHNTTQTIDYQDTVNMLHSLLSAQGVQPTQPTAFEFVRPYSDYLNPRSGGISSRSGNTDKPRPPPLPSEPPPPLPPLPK
Chain of CDK9 CCNT1 (human) (P50750 whole entry, looked up): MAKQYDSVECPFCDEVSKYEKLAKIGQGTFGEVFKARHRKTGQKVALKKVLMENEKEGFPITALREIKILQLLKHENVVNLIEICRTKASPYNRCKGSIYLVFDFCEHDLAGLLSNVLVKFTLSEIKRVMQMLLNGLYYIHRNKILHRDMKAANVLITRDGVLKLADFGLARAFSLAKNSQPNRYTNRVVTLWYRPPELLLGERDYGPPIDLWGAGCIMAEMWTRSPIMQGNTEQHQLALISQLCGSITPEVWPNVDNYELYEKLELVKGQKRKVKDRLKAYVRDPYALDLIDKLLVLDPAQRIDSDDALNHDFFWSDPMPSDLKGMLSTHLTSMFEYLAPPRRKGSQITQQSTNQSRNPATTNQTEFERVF

## CCCCc1c(-c2ccc(O)cc2)[nH]c2nccnc12
[1]
  residual activity: 76.2%
[2]
  residual activity: 66.9%
[3]
  residual activity: 89.1%
[4]
  residual activity: 22.4%
[5]
  residual activity: 45.9%
[6]
  residual activity: 64.3%
[7]
  residual activity: 92.9%
[8]
  residual activity: 93.1%
[9]
  residual activity: 95.9%
[10]
  residual activity: 81.7%
[11]
  residual activity: 89%
[12]
  residual activity: 92.3%
[13]
  residual activity: 62.1%
[14]
  residual activity: 65.3%
[15]
  residual activity: 75.4%
[16]
  residual activity: 103%
[17]
  residual activity: 64.3%
[18]
  residual activity: 80%
[19]
  residual activity: 65.3%
[20]
  residual activity: 76.1%
[21]
  residual activity: 109%
[22]
  residual activity: 94.1%
[23]
  residual activity: 82.7%
[24]
  residual activity: 79.1%
[25]
  residual activity: 82%
[26]
  residual activity: 82.2%
[27]
  residual activity: 99.6%
[28]
  residual activity: 81.4%
[29]
  residual activity: 108%
[30]
  residual activity: 94.3%
[31]
  residual activity: 96.6%
[32]
  residual activity: 109%
[33]
  residual activity: 99.4%
[34]
  residual activity: 110%
[35]
  residual activity: 102%
[36]
  residual activity: 76.1%
[37]
  residual activity: 82.5%
[38]
  residual activity: 82.1%
[39]
  residual activity: 49.9%
[40]
  residual activity: 117%

## Cc1cc(Nc2nc(-c3ccccc3)nc3ccccc23)n[nH]1
[1]
  residual activity: 115%
[41]
  residual activity: 107%
[2]
  residual activity: 52%
[42]
  residual activity: 87.1%
[4]
  residual activity: 96.9%
[5]
  residual activity: 89.1%
[6]
  residual activity: 34.3%
[7]
  residual activity: 94.6%
[8]
  residual activity: 75.7%
[9]
  residual activity: 27%
[10]
  residual activity: 94.8%
[11]
  residual activity: 72.5%
[12]
  residual activity: 76.7%
[13]
  residual activity: 40%
[14]
  residual activity: 90.5%
[15]
  residual activity: 27.9%
[16]
  residual activity: 69.8%
[17]
  residual activity: 59.6%
[18]
  residual activity: 88.3%
[19]
  residual activity: 20.2%
[20]
  residual activity: 89.6%
[21]
  residual activity: 96.1%
[22]
  residual activity: 72.2%
[23]
  residual activity: 130%
[24]
  residual activity: 91.2%
[25]
  residual activity: 51%
[26]
  residual activity: 95%
[27]
  residual activity: 14.6%
[28]
  residual activity: 79.5%
[29]
  residual activity: 84.2%
[30]
  residual activity: 78.9%
[31]
  residual activity: 97.1%
[32]
  residual activity: 102%
[33]
  residual activity: 82.6%
[34]
  residual activity: 101%
[35]
  residual activity: 99.7%
[36]
  residual activity: 118%
[37]
  residual activity: 86.9%
[38]
  residual activity: 53.8%
[39]
  residual activity: 10.8%
[40]
  residual activity: 82.6%

## O=S(=O)(NCCNC/C=C/c1ccc(Br)cc1)c1cccc2cnccc12
[1]
  residual activity: 119%
[41]
  residual activity: 41.6%
[2]
  residual activity: 97.8%
[3]
  residual activity: 92%
[42]
  residual activity: 99.5%
[4]
  residual activity: 105%
[5]
  residual activity: 87.8%
[6]
  residual activity: 119%
[7]
  residual activity: 57.9%
[8]
  residual activity: 97.2%
[9]
  residual activity: 97.8%
[10]
  residual activity: 101%
[11]
  residual activity: 109%
[12]
  residual activity: 81.7%
[13]
  residual activity: 107%
[14]
  residual activity: 55.1%
[15]
  residual activity: 83.5%
[16]
  residual activity: 89.5%
[17]
  residual activity: 90.6%
[18]
  residual activity: 86.2%
[19]
  residual activity: 30.9%
[20]
  residual activity: 89.3%
[21]
  residual activity: 96.1%
[22]
  residual activity: 79.8%
[24]
  residual activity: 94.8%
[25]
  residual activity: 80.7%
[26]
  residual activity: 96.9%
[27]
  residual activity: 84.9%
[28]
  residual activity: 90.2%
[29]
  residual activity: 98.9%
[30]
  residual activity: 85.5%
[31]
  residual activity: 98.7%
[32]
  residual activity: 100%
[33]
  residual activity: 88.4%
[34]
  residual activity: -2.49%
[35]
  residual activity: 71.9%
[36]
  residual activity: 103%
[37]
  residual activity: 95.4%
[38]
  residual activity: 101%
[39]
  residual activity: 88.3%
[40]
  residual activity: 99.4%
